The source of these data is patent US20150173847A1, “IMAGING MARKER AND UTILIZATION THEREOF” (priority 2012, published 2015).

Structures are written as SMILES. “And” between values parts separate entries of the source, which are not always exact repeats. Identical values can stand only once. Like-named read-outs stand apart in the source and are kept apart here.

Series [1] is described as follows: Density of the aqueous solutions calculated from the weight of 2 mL in a tube. Type of series: physicochemical.
Series [2] in a line: T1 and T2 relaxivity measurement by spin echo MRI at varying concentrations. It counts as physicochemical.
For series [3] the following is noted: at 20 to 25° C., cited from earlier work.
For series [4] the following is noted: as in the Examples.
The mark [5] stands for this setting: aqueous solution that exhibited maximum MRI contrast.
The mark [6] stands for this setting: aqueous solution, spin echo, 22° C.

For the molecule `O=S(=O)([O-])[O-].[Cu+2]` [Cu (CuSO4), Copper sulfate], in series [1], the Density is listed as 1.0 g/mL and the density of solution result was “about 1 g/mL”. The “r1 (T1 relaxivity)” value in series [2] is 0.63 and 0.63 mM−1 · sec^−1.
Take `O.[Na+].[Na+].[Na+].[Na+].[Na+].[Na+].[O]=[W](=[O])([O-])[O-].[O]=[W](=[O])([O-])[O-].[O]=[W](=[O])([O-])[O-].[O]=[W](=[O])=[O].[O]=[W](=[O])=[O].[O]=[W](=[O])=[O].[O]=[W](=[O])=[O].[O]=[W](=[O])=[O].[O]=[W](=[O])=[O].[O]=[W](=[O])=[O].[O]=[W](=[O])=[O].[O]=[W](=[O])=[O]` [W (SPT), Sodium polytungstate]: in series [1] (setting [5]), the Density is on record as 3.0 g/mL. Moreover, the “maximum density of aqueous solution” value in series [3] (listed as sodium polytungstate (SPT)) is “at most 3.08 g/mL”; in series [3], 3.08 g/mL. In addition, the water solubility in series [4] was > 1000 mg/mL. Further, the “r1 (T1 relaxivity)” value in series [2] (setting [6]) turned out to be 0.00036 mM⁻¹ s⁻¹; in series [2] (aqueous solution, spin echo, 22° C., listed as SPT), 0.00036 mM⁻¹ s⁻¹.
For `CNC[C@H](O)[C@@H](O)[C@H](O)[C@H](O)CO.CNC[C@H](O)[C@@H](O)[C@H](O)[C@H](O)CO.O=C([O-])CN(CCN(CC(=O)[O-])CC(=O)O)CCN(CC(=O)[O-])CC(=O)O.[Gd+3]` [Gd (Gd-DTPA), meglumine gadopentetate], the Density in series [1] (setting [5]) was 1.0 g/mL. The density of solution entry in series [1] (no matter what concentration the solution may have) is recorded as “about 1 g/mL”. In series [2] (setting [6]), the “r1 (T1 relaxivity)” value came out at 4.2 mM⁻¹ s⁻¹.
